One assay has as its system A. baumannii 1258916. Description: microbe, parasite or virus in culture. The format is cell-based, Acinetobacter baumannii. The conditions noted are these: Acinetobacter baumannii, 1258916, read-out: MIC, A. baumannii 1258916.
The next assay has as its system A. baumannii ATCC 17978. Description: microbe, parasite or virus in culture. The format is cell-based. As to conditions: Acinetobacter baumannii, ATCC17978, read-out: MIC, A. baumannii ATCC 17978.
A further assay deals with P. aeruginosa CDC-0095. Put plainly: microbe, parasite or virus in culture. The format is cell-based. As to conditions: Pseudomonas aeruginosa, CDC0095, read-out: Minimum inhibitory concentration, P. aeruginosa CDC-0095.
For the next assay, the system named is P. aeruginosa CDC-0110. Description: microbe, parasite or virus in culture. In kind it is cell-based. The conditions noted are these: Pseudomonas aeruginosa, CDC0110, read-out: Minimum inhibitory concentration, P. aeruginosa CDC-0110.
The subject of the next assay is N. gonorrhoeae WHO M. Put plainly: Liquid broth MIC in Fastidious broth. The conditions noted are these: Neisseria gonorrhoeae, read-out: Minimum Inhibitory Concentration, WHO M.
The subject of a further assay is N. gonorrhoeae WHO K. Description: Liquid broth MIC in Fastidious broth. As to conditions: Neisseria gonorrhoeae, read-out: Minimum Inhibitory Concentration, WHO K.
For another assay, the system named is A. baumannii CDC-0083. Put plainly: microbe, parasite or virus in culture. The format is cell-based. As to conditions: Acinetobacter baumannii, CDC0083, read-out: MIC, A. baumannii CDC-0083.
The subject of another assay is A. baumannii CDC-0033. Description: microbe, parasite or virus in culture. As to conditions: Acinetobacter baumannii, CDC0033, read-out: MIC, A. baumannii CDC-0033. The format is cell-based.
The next assay has as its system N. gonorrhoeae WHO X. Description: Liquid broth MIC in Fastidious broth. The conditions noted are these: Neisseria gonorrhoeae, read-out: Minimum Inhibitory Concentration, WHO X.
Assay [1] has as its target T1, PBP3 from Acinetobacter baumannii (ATCC 19606) (Acinetobacter baumannii, UniProt A0ABX6CK25).
T1 sequence (A0ABX6CK25 64-610): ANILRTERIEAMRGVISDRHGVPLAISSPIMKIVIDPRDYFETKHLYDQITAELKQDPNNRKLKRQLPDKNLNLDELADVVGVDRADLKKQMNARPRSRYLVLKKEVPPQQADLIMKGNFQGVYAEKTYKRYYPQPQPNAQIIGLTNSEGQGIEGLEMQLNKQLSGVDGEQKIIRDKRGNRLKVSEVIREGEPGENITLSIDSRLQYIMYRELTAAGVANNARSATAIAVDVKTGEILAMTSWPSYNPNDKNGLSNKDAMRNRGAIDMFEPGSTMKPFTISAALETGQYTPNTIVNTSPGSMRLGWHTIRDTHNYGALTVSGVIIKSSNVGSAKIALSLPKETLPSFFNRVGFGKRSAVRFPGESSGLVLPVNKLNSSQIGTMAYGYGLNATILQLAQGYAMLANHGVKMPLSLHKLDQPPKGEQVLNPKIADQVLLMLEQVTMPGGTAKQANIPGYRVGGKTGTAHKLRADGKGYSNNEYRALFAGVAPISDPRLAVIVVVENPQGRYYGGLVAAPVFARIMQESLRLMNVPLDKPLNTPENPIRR
Description: Bocillin-FL fluorescence polarization competition binding, A. baumannii PBP3. The conditions noted are these: fluorescence polarization competition binding assay using Bocillin-FL; read-out: A. baumannii PBP3 Potency. In outline: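 Purified PBP was preincubated with inhibitor (E. coli PBP3 1.5 μM, 30 min; P. aeruginosa PBP3 0.75 μM, A. baumannii PBP3 0.2 μM and PBP1a 1 μM, 15 min), then Bocillin-FL (0.1 μM; 0.05 μM for PBP1a) added and FP read up to 60 min. EC50 = 50% loss of bound probe.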
(In general: Polarisation of emitted light reports the rotation of a fluorescent probe.)

The test system of the next assay is P. aeruginosa CDC-0090. Description: microbe, parasite or virus in culture. In kind it is cell-based. As to conditions: Pseudomonas aeruginosa, CDC0090, read-out: Minimum inhibitory concentration, P. aeruginosa CDC-0090.

Each structure is given as a SMILES string. ≈ marks a conversion by molar mass, not a printed value.

Take `O=C(NCCCS(=O)(=O)N1CCN(C(=O)N[C@@H](C(=O)N[C@H]2Cc3ccc(F)c(C(=O)O)c3OB2O)c2cc(F)c(O)c(O)c2Cl)C1=O)c1cccc(O)c1` [Example 271, (R)-3-((R)-2-(2-chloro-5-fluoro-3,4-dihydroxyphenyl)-2-(3-((3-(3-hydroxybenzamido)propyl)sulfonyl)-2-oxoimidazolidine-1-carboxamido)acetamido)-7-fluoro-2-hydroxy-3,4-dihydro-2H-benzo[e][1,2]oxaborinine-8-carboxylic acid]: the MIC was under 1 µg/mL in the assay with A. baumannii 1258916; under 1 µg/mL in the assay on A. baumannii ATCC 17978; over 128 µg/mL in the assay on P. aeruginosa CDC-0095; 8 to 16 µg/mL (≈ 10.1 to 20.1 µM) with P. aeruginosa CDC-0110; 4 to 8 µg/mL (≈ 5.03 to 10.1 µM) in the assay with N. gonorrhoeae WHO M; over 64 µg/mL in the assay on N. gonorrhoeae WHO K. Besides, the MIC with A. baumannii CDC-0083 is under 1 µg/mL; in the assay on A. baumannii CDC-0033 it was 2 to 4 µg/mL (≈ 2.51 to 5.03 µM); with N. gonorrhoeae WHO X, over 64 µg/mL; in the assay with P. aeruginosa CDC-0090, 2 to 4 µg/mL (≈ 2.51 to 5.03 µM). Moreover, in assay [1], the IC50 is under 10 µM.
On to `O=C(NCCCS(=O)(=O)N1CCN(C(=O)NC(C(=O)N[C@H]2Cc3ccc(F)c(C(=O)O)c3OB2O)c2cc(F)c(O)c(O)c2Cl)C1=O)c1ccncc1` (stereo partly drawn) [Example 272, (3R)-3-(2-(2-chloro-5-fluoro-3,4-dihydroxyphenyl)-2-(3-((3-(isonicotinamido)propyl)sulfonyl)-2-oxoimidazolidine-1-carboxamido)acetamido)-7-fluoro-2-hydroxy-3,4-dihydro-2H-benzo[e][1,2]oxaborinine-8-carboxylic acid], for which the MIC with A. baumannii 1258916 was 2 to 4 µg/mL (≈ 2.56 to 5.12 µM); with A. baumannii ATCC 17978 it was under 1 µg/mL; in the assay with P. aeruginosa CDC-0095, over 128 µg/mL; in the assay on P. aeruginosa CDC-0110, 2 to 4 µg/mL (≈ 2.56 to 5.12 µM); in the assay on N. gonorrhoeae WHO M, 16 to 32 µg/mL (≈ 20.5 to 41 µM); in the assay on N. gonorrhoeae WHO K, over 64 µg/mL. For the same compound, the MIC in the assay on A. baumannii CDC-0083 was under 1 µg/mL; with A. baumannii CDC-0033, 8 to 16 µg/mL (≈ 10.2 to 20.5 µM); in the assay with N. gonorrhoeae WHO X it was over 64 µg/mL; in the assay with P. aeruginosa CDC-0090, 2 to 4 µg/mL (≈ 2.56 to 5.12 µM). Also, the IC50 in [1] is under 10 µM.
As to `O=C(NCCCS(=O)(=O)N1CCN(C(=O)NC(C(=O)N[C@H]2Cc3ccc(F)c(C(=O)O)c3OB2O)c2cc(F)c(O)c(O)c2Cl)C1=O)c1cccnc1` (stereo partly drawn) [Example 273, (3R)-3-(2-(2-chloro-5-fluoro-3,4-dihydroxyphenyl)-2-(3-((3-(nicotinamido)propyl)sulfonyl)-2-oxoimidazolidine-1-carboxamido)acetamido)-7-fluoro-2-hydroxy-3,4-dihydro-2H-benzo[e][1,2]oxaborinine-8-carboxylic acid], the MIC with A. baumannii 1258916 is under 1 µg/mL; with A. baumannii ATCC 17978, under 1 µg/mL; in the assay on P. aeruginosa CDC-0095, 32 to 64 µg/mL (≈ 41 to 82 µM); with P. aeruginosa CDC-0110 it was under 1 µg/mL; in the assay with N. gonorrhoeae WHO M it was 16 to 32 µg/mL (≈ 20.5 to 41 µM); in the assay on N. gonorrhoeae WHO K, over 64 µg/mL. For the same compound, the MIC with A. baumannii CDC-0083 was under 1 µg/mL; in the assay with A. baumannii CDC-0033, 2 to 4 µg/mL (≈ 2.56 to 5.12 µM); with N. gonorrhoeae WHO X, over 64 µg/mL; in the assay on P. aeruginosa CDC-0090 it was under 1 µg/mL. Moreover, the IC50 in assay [1] was under 10 µM.
In the case of `O=C(NCCCS(=O)(=O)N1CCN(C(=O)NC(C(=O)N[C@H]2Cc3ccc(F)c(C(=O)O)c3OB2O)c2cc(F)c(O)c(O)c2Cl)C1=O)c1nccs1` (stereo partly drawn) [Example 274, (3R)-3-(2-(2-chloro-5-fluoro-3,4-dihydroxyphenyl)-2-(2-oxo-3-((3-(thiazole-2-carboxamido)propyl)sulfonyl)imidazolidine-1-carboxamido)acetamido)-7-fluoro-2-hydroxy-3,4-dihydro-2H-benzo[e][1,2]oxaborinine-8-carboxylic acid], the MIC in the assay with A. baumannii 1258916 is under 1 µg/mL; in the assay on A. baumannii ATCC 17978, under 1 µg/mL; in the assay with P. aeruginosa CDC-0095 it was over 128 µg/mL; in the assay on P. aeruginosa CDC-0110, 2 to 4 µg/mL (≈ 2.54 to 5.08 µM); in the assay with N. gonorrhoeae WHO M, 16 to 32 µg/mL (≈ 20.3 to 40.7 µM); in the assay on N. gonorrhoeae WHO K, over 64 µg/mL. The MIC in the assay on A. baumannii CDC-0083 was under 1 µg/mL; with A. baumannii CDC-0033, 8 to 16 µg/mL (≈ 10.2 to 20.3 µM); with N. gonorrhoeae WHO X, over 64 µg/mL; in the assay on P. aeruginosa CDC-0090, 2 to 4 µg/mL (≈ 2.54 to 5.08 µM). Further, the IC50 in [1] is under 10 µM.
On to `O=C(O)c1c(F)ccc2c1OB(O)[C@@H](NC(=O)C(NC(=O)N1CCN(S(=O)(=O)CCCNC(=O)[C@@H]3CCCN3)C1=O)c1cc(F)c(O)c(O)c1Cl)C2` (stereo partly drawn) [Example 275, (3R)-3-(2-(2-chloro-5-fluoro-3,4-dihydroxyphenyl)-2-(2-oxo-3-((3-((S)-pyrrolidine-2-carboxamido)propyl)sulfonyl)imidazolidine-1-carboxamido)acetamido)-7-fluoro-2-hydroxy-3,4-dihydro-2H-benzo[e][1,2]oxaborinine-8-carboxylic acid], for which the MIC with A. baumannii 1258916 was under 1 µg/mL; in the assay on A. baumannii ATCC 17978, under 1 µg/mL; with P. aeruginosa CDC-0095, 8 to 16 µg/mL (≈ 10.4 to 20.7 µM); in the assay on P. aeruginosa CDC-0110, under 1 µg/mL; in the assay on N. gonorrhoeae WHO M it was 16 to 32 µg/mL (≈ 20.7 to 41.4 µM); in the assay on N. gonorrhoeae WHO K, over 64 µg/mL. The MIC in the assay on A. baumannii CDC-0083 was 2 to 4 µg/mL (≈ 2.59 to 5.18 µM); in the assay with A. baumannii CDC-0033 it was 8 to 16 µg/mL (≈ 10.4 to 20.7 µM); in the assay on N. gonorrhoeae WHO X, over 64 µg/mL; in the assay on P. aeruginosa CDC-0090 it was 8 to 16 µg/mL (≈ 10.4 to 20.7 µM). Further, in assay [1], the IC50 is under 10 µM.
Take `O=C(NCCCS(=O)(=O)N1CCN(C(=O)NC(C(=O)N[C@H]2Cc3ccc(F)c(C(=O)O)c3OB2O)c2cc(F)c(O)c(O)c2Cl)C1=O)Nc1ccc(O)cc1` (stereo partly drawn) [Example 276, (3R)-3-(2-(2-chloro-5-fluoro-3,4-dihydroxyphenyl)-2-(3-((3-(3-(4-hydroxyphenyl)ureido)propyl)sulfonyl)-2-oxoimidazolidine-1-carboxamido)acetamido)-7-fluoro-2-hydroxy-3,4-dihydro-2H-benzo[e][1,2]oxaborinine-8-carboxylic acid]: the MIC in the assay on A. baumannii 1258916 was under 1 µg/mL; in the assay with A. baumannii ATCC 17978, under 1 µg/mL; in the assay with P. aeruginosa CDC-0095, 8 to 16 µg/mL (≈ 9.87 to 19.7 µM); in the assay on P. aeruginosa CDC-0110, 2 to 4 µg/mL (≈ 2.47 to 4.93 µM); with N. gonorrhoeae WHO M, 4 to 8 µg/mL (≈ 4.93 to 9.87 µM); in the assay with N. gonorrhoeae WHO K it was over 64 µg/mL. The MIC is under 1 µg/mL in the assay with A. baumannii CDC-0083, 8 to 16 µg/mL (≈ 9.87 to 19.7 µM) in the assay with A. baumannii CDC-0033, over 64 µg/mL in the assay on N. gonorrhoeae WHO X and under 1 µg/mL in the assay with P. aeruginosa CDC-0090. In addition, the IC50 in assay [1] was under 10 µM.

The record behind these values is US20240270762A1, “PENICILLIN-BINDING PROTEIN INHIBITORS” (priority 2021, published 2024).
